Experimental data published in patent US20240092835A1, “NOVEL PEPTIDES CAPABLE OF ALTERING NK CELL ACTIVITY” (Massachusetts Institute of Technology, priority 2022, published 2024).
Entries after “also recorded” stand apart in the source; their conditions may differ. Where no end group is shown, it is not given here.

Experiments:
HLA-E = molecular target: T1, HLA-E (Homo sapiens, UniProt P13747); assay: HLA-E surface stabilization assay with RMA-S/HLA-E cells; format: cell-based; conditions: 30 μM peptide, 16 hours; for HLA-E surface expression stability (GeoMFI): anti-HLA-E antibody
T1 construct: expressed in transfected cells; host or cells: RMA-S/HLA-E cells (antigen processing-defective lymphoma cell line)
T1 sequence (P13747 22-358): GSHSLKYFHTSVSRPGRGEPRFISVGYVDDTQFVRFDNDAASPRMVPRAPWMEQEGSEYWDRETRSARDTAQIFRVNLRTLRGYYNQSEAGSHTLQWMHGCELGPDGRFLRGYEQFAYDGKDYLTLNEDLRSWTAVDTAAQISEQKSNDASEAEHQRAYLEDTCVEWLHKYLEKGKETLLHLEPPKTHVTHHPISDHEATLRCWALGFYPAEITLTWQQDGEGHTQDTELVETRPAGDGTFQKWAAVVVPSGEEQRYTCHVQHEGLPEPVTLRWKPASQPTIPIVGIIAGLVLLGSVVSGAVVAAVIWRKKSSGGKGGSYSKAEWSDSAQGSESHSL
T1 sequence (P61769 21-119 partner): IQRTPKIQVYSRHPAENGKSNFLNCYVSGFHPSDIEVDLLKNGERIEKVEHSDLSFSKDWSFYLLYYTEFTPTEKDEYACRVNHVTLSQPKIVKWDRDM
Method: HLA-E surface expression was assessed by measuring geometric mean fluorescence intensity (GeoMFI) in RMA-S cells following immunofluorescence staining with an anti-HLA-E antibody (Table 14). Increased GeoMFI was indicative of increased HLA-E surface expression stability following novel peptide exposures (FIG. 3).

CD94/NKG2A = CD94/NKG2A (Homo sapiens, UniProt P26715+Q13241); assay: Steady-state surface plasmon resonance of peptide-HLA-E complex with CD94/NKG2A; format: binding; conditions: for Binding of peptide-HLA-E complexes to CD94/NKG2A normalized to a theoretical Rmax: steady-state SPR
Chain of CD94/NKG2A (P26715 94-233 limits assumed): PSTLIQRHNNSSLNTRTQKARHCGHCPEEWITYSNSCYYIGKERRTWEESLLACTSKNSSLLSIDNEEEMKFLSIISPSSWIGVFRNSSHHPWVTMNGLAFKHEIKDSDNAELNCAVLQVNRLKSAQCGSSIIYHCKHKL
Chain of CD94/NKG2A (Q13241 32-179 limits assumed): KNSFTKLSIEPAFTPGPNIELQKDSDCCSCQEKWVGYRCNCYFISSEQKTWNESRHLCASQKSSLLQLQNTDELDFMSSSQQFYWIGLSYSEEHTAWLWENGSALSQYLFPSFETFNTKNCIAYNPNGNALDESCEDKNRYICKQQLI
Method: Binding affinity of novel peptides linked to HLA-E was determined using surface plasmon resonance (SPR), a methodology used to study protein-protein interactions (Tables 15-19). The peptide-HLA-E complex (generated as a single chain trimer) was immobilized on the sensor chip surface and CD94/NKG2A or CD94/NKG2C were flowed over. Steady-state surface plasmon resonance experiments were performed with a Biacore T200 instrument. CD94/NKG2x in HBS-EP+ buffer was injected as analyte in a concentration range of 0.1 μM to 102.4 μM and flow rate of 10 μL/min at 25° C. Data was fit with Prism 9.4 (GraphPad Software Inc; San Diego CA) to a “one site, specific binding” model. Series S CM5 chips were coupled to neutravidin and utilized. Biotinylated pMHC was immobilized at approximately 400 RU. KD values calculated by Biacore software are reported. Rmax, fit values were calculated by Biacore software. Rmax, theoretical values were calculated using the analyte/ligand mass ratio (0.66) multiplied by the amount of ligand coupled to the chip.

[1] = CD94/NKG2A concentration 0.1 μM
[2] = CD94/NKG2A concentration 0.2 μM
[3] = CD94/NKG2A concentration 0.4 μM
[4] = CD94/NKG2A concentration 0.8 μM
[5] = CD94/NKG2A concentration 1.6 μM
[6] = CD94/NKG2A concentration 3.2 μM
[7] = CD94/NKG2A concentration 6.4 μM
[8] = CD94/NKG2A concentration 12.8 μM
[9] = CD94/NKG2A concentration 25.6 μM
[10] = CD94/NKG2A concentration 51.2 μM
[11] = CD94/NKG2A concentration 102.4 μM
[12] = CD94/NKG2A analyte concentration 0.000 μM
[13] = CD94/NKG2A analyte concentration 0.100 μM
[14] = CD94/NKG2A analyte concentration 0.200 μM
[15] = CD94/NKG2A analyte concentration 0.400 μM
[16] = CD94/NKG2A analyte concentration 0.800 μM
[17] = CD94/NKG2A analyte concentration 1.600 μM
[18] = CD94/NKG2A analyte concentration 3.200 μM
[19] = CD94/NKG2A analyte concentration 6.400 μM
[20] = CD94/NKG2A analyte concentration 12.800 μM
[21] = CD94/NKG2A analyte concentration 25.600 μM
[22] = CD94/NKG2A analyte concentration 51.200 μM
[23] = CD94/NKG2A analyte concentration 102.400 μM

Row | Sequence | HLA-E surface expression stability (GeoMFI) (HLA-E; Trial 1) | HLA-E surface expression stability (GeoMFI) (HLA-E; Trial 2) | HLA-E surface expression stability (GeoMFI) (HLA-E; Trial 3) | HLA-E surface expression stability (GeoMFI) (HLA-E; Trial 4) | binding of peptide-HLA-E complex to CD94/NKG2A normalized to a fitted Rmax (CD94/NKG2A; CD94/NKG2A concentration 0 μM) | binding of peptide-HLA-E complex to CD94/NKG2A normalized to a fitted Rmax (CD94/NKG2A; [1]) | binding of peptide-HLA-E complex to CD94/NKG2A normalized to a fitted Rmax (CD94/NKG2A; [2]) | binding of peptide-HLA-E complex to CD94/NKG2A normalized to a fitted Rmax (CD94/NKG2A; [3]) | binding of peptide-HLA-E complex to CD94/NKG2A normalized to a fitted Rmax (CD94/NKG2A; [4]) | binding of peptide-HLA-E complex to CD94/NKG2A normalized to a fitted Rmax (CD94/NKG2A; [5]) | binding of peptide-HLA-E complex to CD94/NKG2A normalized to a fitted Rmax (CD94/NKG2A; [6]) | binding of peptide-HLA-E complex to CD94/NKG2A normalized to a fitted Rmax (CD94/NKG2A; [7]) | binding of peptide-HLA-E complex to CD94/NKG2A normalized to a fitted Rmax (CD94/NKG2A; [8]) | binding of peptide-HLA-E complex to CD94/NKG2A normalized to a fitted Rmax (CD94/NKG2A; [9]) | binding of peptide-HLA-E complex to CD94/NKG2A normalized to a fitted Rmax (CD94/NKG2A; [10]) | binding of peptide-HLA-E complex to CD94/NKG2A normalized to a fitted Rmax (CD94/NKG2A; [11]) | Binding of peptide-HLA-E complexes to CD94/NKG2A normalized to a theoretical Rmax (CD94/NKG2A; [12]) | Binding of peptide-HLA-E complexes to CD94/NKG2A normalized to a theoretical Rmax (CD94/NKG2A; [13]) | Binding of peptide-HLA-E complexes to CD94/NKG2A normalized to a theoretical Rmax (CD94/NKG2A; [14]) | Binding of peptide-HLA-E complexes to CD94/NKG2A normalized to a theoretical Rmax (CD94/NKG2A; [15]) | also measured
1 | QMPSRSLLF [human1, QMPSRSLLF] | 2461 GeoMFI | 1755 GeoMFI | 2273 GeoMFI | 2496 GeoMFI | −0.006 | 0.035 | 0.068 | 0.128 | 0.221 | 0.349 | 0.506 | 0.664 | 0.798 | 0.896 | 0.950 | 0.996 | −0.005 | 0.025 | 0.049 | 0.093 | HLA-E surface expression stabilization strength (in words) (HLA-E): moderate; HLA-E surface expression stabilization strength, approximate GeoMFI (HLA-E; approximate value): approximately 2×10^3 GeoMFI; Binding of peptide-HLA-E complexes to CD94/NKG2A normalized to a theoretical Rmax (CD94/NKG2A; [16]): 0.160; Binding of peptide-HLA-E complexes to CD94/NKG2A normalized to a theoretical Rmax (CD94/NKG2A; [17]): 0.252; Binding of peptide-HLA-E complexes to CD94/NKG2A normalized to a theoretical Rmax (CD94/NKG2A; [18]): 0.365; Binding of peptide-HLA-E complexes to CD94/NKG2A normalized to a theoretical Rmax (CD94/NKG2A; [19]): 0.479; Binding of peptide-HLA-E complexes to CD94/NKG2A normalized to a theoretical Rmax (CD94/NKG2A; [20]): 0.577; Binding of peptide-HLA-E complexes to CD94/NKG2A normalized to a theoretical Rmax (CD94/NKG2A; [21]): 0.647; Binding of peptide-HLA-E complexes to CD94/NKG2A normalized to a theoretical Rmax (CD94/NKG2A; [22]): 0.686; Binding of peptide-HLA-E complexes to CD94/NKG2A normalized to a theoretical Rmax (CD94/NKG2A; [23]): 0.719
2 | VNPGRSLFL [human5, VNPGRSLFL] | 569 GeoMFI | 509 GeoMFI | 566 GeoMFI | 750 GeoMFI | −0.002 | 0.177 | 0.288 | 0.434 | 0.593 | 0.739 | 0.863 | 0.955 | 1.018 | 1.059 | 1.081 | 1.105 | −0.001 | 0.074 | 0.120 | 0.181 | HLA-E surface expression stabilization strength (in words) (HLA-E; listed as BFAR263-271): closest to the experimental negative control (DMSO); also recorded: lowest; Binding of peptide-HLA-E complexes to CD94/NKG2A normalized to a theoretical Rmax (CD94/NKG2A; [16]): 0.247; Binding of peptide-HLA-E complexes to CD94/NKG2A normalized to a theoretical Rmax (CD94/NKG2A; [17]): 0.308; Binding of peptide-HLA-E complexes to CD94/NKG2A normalized to a theoretical Rmax (CD94/NKG2A; [18]): 0.360; Binding of peptide-HLA-E complexes to CD94/NKG2A normalized to a theoretical Rmax (CD94/NKG2A; [19]): 0.398; Binding of peptide-HLA-E complexes to CD94/NKG2A normalized to a theoretical Rmax (CD94/NKG2A; [20]): 0.425; Binding of peptide-HLA-E complexes to CD94/NKG2A normalized to a theoretical Rmax (CD94/NKG2A; [21]): 0.442; Binding of peptide-HLA-E complexes to CD94/NKG2A normalized to a theoretical Rmax (CD94/NKG2A; [22]): 0.451; Binding of peptide-HLA-E complexes to CD94/NKG2A normalized to a theoretical Rmax (CD94/NKG2A; [23]): 0.461
